Reference: US7323609B2, “Corrosion and gas hydrate inhibitors having improved water solubility and increased biodegradability” (Clariant Produkte (Deutschland) GmbH, priority 2003, dated 2008)

Legend:
[1] = Shell wheel test (corrosion inhibition); conditions: 50 ppm of a 40% inhibitor solution; salt water/petroleum, pH 3.5, 40 rpm, 70° C., 24 hours; from mass reduction vs blank
Protocol: The compounds according to the invention were tested as corrosion inhibitors in the Shell wheel test. Coupons of carbon steel (DIN 1.1203 having 15 cm^2 surface area) were immersed in a salt water/petroleum mixture (9:1.5% NaCl solution, adjusted to pH 3.5 using acetic acid) and subjected to this medium at a rotation rate of 40 rpm at 70° C. for 24 hours. The dosage of the inhibitor was 50 ppm of a 40% solution of the inhibitor. The protection values were calculated from the mass reduction of the coupons, based on a blank value.
In the table which follows, “comparison 1” refers to a commercial residue amine, quat based on dicocoalkyldimethylammonium chloride and “comparison 2” to a commercial soya fatty acid amidopropyl-N,N-dimethylammonium carboxymethyl betaine described by EP-B-0 446 616 (prior art corrosion inhibitors).

[2] = LPR test (corrosion inhibition, conditions similar to ASTM D 2776); design: concentration or dose not given beside the values
Protocol: The products were also tested in the LPR test (test conditions similar to ASTM D 2776).

Substance: lauryl+3 EO-ether carboxamido-N,N-dimethylamino-N-propylammonium N-methylcarboxyl betaine [Example 35]
- ø Protection % [1]: 75.9%
- Protection after 10 min [2]: 74.4%
- Protection after 30 min [2]: 80.2%
- Protection after 60 min [2]: 84.3%

Substance: C14/15-oxo alcohol+7 EO-ether carboxamido-N,N-dimethylamino-N-propylammonium N-methylcarboxyl betaine [Example 34]
- ø Protection % [1]: 71.9%

Substance: oleyl+5 EO-ether carboxamido-N,N-dimethylamino-N-propylammonium N-methylcarboxyl betaine [Example 33]
- ø Protection % [1]: 70.7%
- Protection after 10 min [2]: 75.6%
- Protection after 30 min [2]: 80.3%
- Protection after 60 min [2]: 82.8%
